Experimental data: patent publication EP0820772A1, “IMMUNOMODULATING MEDICINAL AGENT” (Travkin, Oleg Viktorovich, priority 1995, dated 1996)

Key:
[1] = tested on: Lympho-sarcoma; assay: Antitumorous effectiveness, lympho-sarcoma tumour mass; settings: intraperitoneally; proposed drug 30mg./kg. and prototype 300 mg./kg. on days 1, 2, 3 after transplantation; Adriamycin 600 μg./kg. on days 1 and 3; control 1124
[2] = tested on: Erlich’s carcinoma; assay: Antitumorous effectiveness, Erlich's carcinoma tumour mass; settings: intraperitoneally; proposed drug 300 mg./kg. and prototype 300 mg./kg. on days 1 and 3 after transplantation; Adriamycin 600 μg on day 1; control 540
[3] = tested on: Herpes simplex - 1 (MS strain); assay: Herpetic encephalitis, mortality; format: in vivo; settings: 100 LD 50; 7 days after infection; intraperitoneally; AraA 20 mg./kg. every day; prototype 400 mg./kg. and proposed drug 25 mg./kg. 4 h before and 24 h after infection; control 100%
[4] = tested on: Semlika forest virus; assay: Semlika forest virus infection, mortality; format: in vivo; settings: 30 LD 50; 12 days after infection; intraperitoneally; Remantadin 20 mg./kg 4 h and 24 h after infection; proposed drug 10 mg./kg 4 h before and 24 h after infection; control 80%
[5] = tested on: Venezuelan equine encephalitis virus (SPF strain); format: in vivo; settings: intraperitoneally, Poly (G) 0.1 g./kg. and prototype 200 mg./kg. at infection and 24 h after, proposed drug 20 mg./kg 4 h before and 24 h after infection
[6] = in vivo
[7] = tested on: leukosis L 1210; assay: Treatment of developing leukosis L 1210; settings: orally on days 1, 2, 3 after transplantation; proposed drug 30 mg./kg., prototype 400 mg./kg.; control 96
[8] = tested on: Herpes simplex-2 (Ela 5699 strain); assay: Rabbit keratitis, severity of clinical symptoms; settings: daily instillation: megosin 3% ointment, prototype 5% ointment, proposed drug 2.1% suspension; for Index of severity of clinical symptoms on day 5 following infection: control 14; for Index of severity of clinical symptoms on day 7 following infection: control 17; for Index of severity of clinical symptoms on day 9 following infection: control 13; for Index of severity of clinical symptoms on day 14 following infection: control 2

Molecule	Indices of efficacy (Mean tumour mass (mg.)) [1] [mg]	Indices of efficacy (Mean tumour mass (mg.)) [2] [mg]	Indices of efficacy, % mortality [3]	Indices of efficacy, % mortality [4]	Degree of suppression of viral reproduction in the brain 48 hours after infection, expressed as a percentage relative to the control [5] [%]	toxicity (therapeutic index) [6]	Percentage of blastular cells in peripheral blood [7] [%]	Index of severity of clinical symptoms on day 5 following infection [8]	Index of severity of clinical symptoms on day 7 following infection [8]	Index of severity of clinical symptoms on day 9 following infection [8]	Index of severity of clinical symptoms on day 14 following infection [8]
COc1cccc2c1C(=O)c1c(O)c3c(c(O)c1C2=O)C[C@@](O)(C(=O)CO)C[C@@H]3O[C@H]1C[C@H](N)[C@H](O)[C@H](C)O1 [Adriamycin]	622	100									
Nc1ncnc2c1ncn2[C@@H]1O[C@H](CO)[C@@H](O)[C@@H]1O [AraA, adenin - arabinosid]			42%, 7 days after infection								
CC(N)C12CC3CC(CC(C3)C1)C2 (stereo not drawn) [Remantadin]				20%, 12 days after infection							
CN(C)CCOc1ccc2cc3cc([N+](=O)[O-])c(OCCN(C)C)c(Cl)c3nc2c1Cl [The prototype, 3.6 - bis(2-dimethylaminetoxy)-4.5-dichlorine-2-nitroacridine]	820	200	22%		74	10-15	40	10	14	8	1
ether of 10 - methylencarboxylat-9-acridone [The proposed drug]	534	74	5%	0%	98		18	5	3	1	0
